Reference: paper PMC10223019, “Preclinical Evaluation of a PSMA-Targeting Homodimer with an Optimized Linker for Imaging of Prostate Cancer” (Molecules, 2023)
Several values for one entry are separate records, joined by “and”; a condition that tells them apart may be missing. Equal entries are not always repeated.

Legend:
[1] = target: T1, Recombinant human PSMA (rhPSMA) (Homo sapiens, UniProt Q04609); test: NAALADase assay (competitive inhibition, Amplex Red glutamate readout); type: biochemical; details: for IC50: rhPSMA, substrate Ac-Asp-Glu, 1 h 37 °C
T1 construct: purchased R&D systems, Abingdon, UK
T1 sequence (Q04609 whole entry): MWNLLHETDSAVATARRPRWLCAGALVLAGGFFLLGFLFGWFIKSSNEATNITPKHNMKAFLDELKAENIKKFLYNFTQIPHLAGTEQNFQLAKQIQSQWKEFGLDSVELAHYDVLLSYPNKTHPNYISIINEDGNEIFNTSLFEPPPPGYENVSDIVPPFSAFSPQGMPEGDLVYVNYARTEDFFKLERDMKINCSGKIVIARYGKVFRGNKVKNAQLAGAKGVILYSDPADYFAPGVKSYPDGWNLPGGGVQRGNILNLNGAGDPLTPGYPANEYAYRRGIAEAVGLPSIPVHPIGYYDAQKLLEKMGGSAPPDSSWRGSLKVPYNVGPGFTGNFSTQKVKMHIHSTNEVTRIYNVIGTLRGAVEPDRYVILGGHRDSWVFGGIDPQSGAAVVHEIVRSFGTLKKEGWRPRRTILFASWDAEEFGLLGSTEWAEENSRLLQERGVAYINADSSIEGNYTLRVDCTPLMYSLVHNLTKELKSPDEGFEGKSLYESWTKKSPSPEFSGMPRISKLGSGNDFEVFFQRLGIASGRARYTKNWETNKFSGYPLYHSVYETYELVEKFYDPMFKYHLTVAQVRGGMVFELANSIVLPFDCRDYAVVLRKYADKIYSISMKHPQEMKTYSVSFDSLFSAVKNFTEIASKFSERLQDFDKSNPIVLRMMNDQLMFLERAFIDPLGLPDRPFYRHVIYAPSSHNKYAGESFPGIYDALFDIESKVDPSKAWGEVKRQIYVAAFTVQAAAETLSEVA
Protocol: Recombinant human PSMA (rhPSMA; R&D systems, Abingdon, UK) was diluted in assay buffer (50 mM HEPES, 0.1 M NaCl, pH 7.5) to 0.4 μg/mL. The substrate Ac–Asp–Glu (40 μM) was mixed with the synthesized derivatives and with a reference (PSMA-617) at concentrations ranging from 10^−6 to 10^−13 M in a final volume of 12.5 μL assay buffer. The mixtures were combined with 12.5 μL of the rhPSMA solution and incubated for 1 h at 37 °C in 384-well black polystyrene microplates (ThermoFisher, Bleiswijk, The Netherlands). The amount of glutamate released was measured by incubating with 25 μL of a working solution of the Amplex Red glutamic acid kit (ThermoFisher, Bleiswijk, The Netherlands) at 37 °C for 30 min. Fluorescence was measured with a HIDEX Sense Optical System (Goedereede, The Netherlands) with excitation at 535 nm and emission at 590 nm. Data were normalized and analyzed using a one-site total binding regression with GraphPad Prism v9.0 (GraphPad Software, San Diego, CA, USA).

[2] = test system: BALB/c nude mice bearing LS174T PSMA-positive tumor xenografts; test: Ex vivo biodistribution studies; type: in vivo; details: 24 h p.i.
Protocol: Animal experiments were performed in 8–10 weeks old male BALB/c nude mice (Janvier Labs, Le Genest-Saint-Isle, France). Animals were housed in individually ventilated cages (Blue line IVC, 4 mice per cage) under nonsterile standard conditions with cage enrichment present and free access to chlorophyll-free animal chow (Sniff GmbH, Soest, Germany) and water and acclimated for 1 week before experiments. Mice were subcutaneously inoculated with 4.0 × 10^6 LS174T cells in the right flank, diluted in 100 μL of cell suspension. Seven days after tumor cell inoculation, when xenografts were approximately 0.2–0.3 cm^3, the tracers were injected intravenously via the tail vein. All experiments were approved by the institutional Animal Welfare Committee and were conducted in accordance with the guidelines of the Revised Dutch Act on Animal Experimentation (WOD).
Mice were intravenously injected with ~1 nmol of either [^111In]In-PSMA-617, [^111In]In-22 or [^111In]In-30 with molar activity of 5 MBq/nmol for ex vivo biodistribution studies. Mice (n = 4/timepoint) were euthanized by cervical dislocation at 1, 4, and 24 h p.i. A block group was included, and mice were euthanized at 4 h p.i. Organs were collected in tubes and counted in the gamma counter, where the calibration factor was determined by measuring different known activities of indium-111.

[3] = test system: PSMA expressing LS174T cells; test: Internalization and cell uptake assay; type: cell-based, human; details: 2 h 37 °C
Protocol: LS174T human colon carcinoma cells transfected with human PSMA were obtained from Dr. Sandra Heskamp (Radboud UMC, Nijmegen). Cells were cultured in RPMI-1640 media supplemented with 2 mM glutamine, 10% fetal bovine serum (FBS) and 0.3 mg/mL G418 (Geneticin, Sigma Aldrich, St. Louis, MO, USA).
Cells were seeded (1.2 × 10^6 cells/well) and cultured to confluency for 24 h prior to experiments. We prepared 10^−9 M solutions of [^111In]In-PSMA-617, [^111In]In-22, and [^111In]In-30 in internalization media (RPMI, 20 mM HEPES, 1% BSA, pH 7.4). The media were removed from each well, and they were rinsed twice with PBS at rt. 2 mL of the radioactive compound was then added to each well and incubated at 37 °C for 2 h. For the internalization assay, the media containing radioactive compound were removed, and each well was washed twice with cold PBS. A total of 1 mL of Glycine buffer (50 mM glycine, 100 mM NaCl, pH 2.8) was added immediately and incubated for 10 min at rt. The glycine wash was then collected into counting tubes (membrane-bound fraction). An extra wash was performed and collected in the same tubes. A total of 1 mL of NaOH (1 M) was then added to each tube and left for 15 min at rt. The lysate (internalized fraction) was then collected in separate counting tubes, together with one extra NaOH wash. Data were normalized to 1,000,000 cells and percentage added dose.

[4] = LogD7.4 by shake-flask method (PBS/n-octanol); type: physicochemical; details: PBS/n-octanol (1:1 v/v); LogD7.4, PBS pH 7.4/n-octanol, indium-111 labeled compound; read-out: LogD
Protocol: The distribution coefficients (LogD7.4 values) were determined by a shake-flask method, in which 2 μL (~0.5 MBq) of the labeling solution ([^111In]In-22 or [^111In]In-30) were added to an Eppendorf tube containing 1 mL of PBS (0.01 M, pH 7.4)/n-octanol (v/v, 1:1). After vigorous vortexing, the solution was centrifuged at 2500× g for 15 min for phase separation. Samples (3 × 10 μL) of the two phases were taken out and measured in a gamma counter. LogD7.4 values were calculated by using the following equation: LogD7.4 = log [(counts in octanol phase)/(counts in aqueous phase)] and the experiment was performed in triplicate.

[5] = Stability in phosphate-buffered saline (PBS), radio-HPLC; type: physicochemical; details: 24 h post-incubation, 37 °C, indium-111 labeled, intact fraction
Protocol: [^111In]In-22 or [^111In]In-30 (~10 MBq, 20 µL) was mixed with 80 μL of PBS (0.01 M, pH 7.4) and incubated at 37 °C for up to 24 h. A sample of the PBS solution was loaded directly onto the radio-HPLC at 1, 4, and 24 h post-incubation.

[6] = Stability in mouse serum, radio-HPLC; type: in vitro ADME; details: 24 h post-incubation, 37 °C, indium-111 labeled, intact fraction
Protocol: [^111In]In-22 or [^111In]In-30 (~35 MBq, 70 µL) was mixed with 330 μL of mouse serum and incubated at 37 °C for up to 24 h. After 1, 4, and 24 h incubation, 50 μL of the mouse serum solution was added to a separate vial containing 50 µL of acetonitrile. The sample was centrifuged at 5000× g for 20 min. The supernatant was analyzed by radio-HPLC.

| SMILES | IC50 [1] | other results |
| --- | --- | --- |
| CC(C)C[C@H](NC(=O)C[C@H](O)[C@@H](N)CC(C)C)[C@@H](O)CC(=O)NCCCCCC(=O)NCCCC[C@H](NC(=O)N[C@@H](CCC(=O)O)C(=O)O)C(=O)O [Compound 11] | 6.5 ± 0.4 nM |  |
| NCCC(=O)NCCCCCC(=O)NCCCC[C@H](NC(=O)N[C@@H](CCC(=O)O)C(=O)O)C(=O)O [Compound 2, EuK(Ahx-Ala)] | 23.1 ± 3.1 nM |  |
| CC(C)C[C@H](NC(=O)[C@@H](Cc1ccccc1)NC(=O)[C@H](CC(=O)O)NC(=O)CCC(C(=O)O)N1CCN(CC(=O)O)CCN(CC(=O)O)CCN(CC(=O)O)CC1)[C@@H](O)CC(=O)NCCCCCC(=O)NCCCC[C@H](NC(=O)N[C@@H](CCC(=O)O)C(=O)O)C(=O)O (stereo partly drawn) [Compound 23, EuK(Ahx-Sta-D-Phe-Asp-DOTA-GA)] |  | logD [4]: -3.21 ± 0.07 |
| CC(C)C[C@H](N)[C@@H](O)CC(=O)N[C@@H](Cc1ccccc1)C(=O)NCCCCCC(=O)NCCCC[C@H](NC(=O)N[C@@H](CCC(=O)O)C(=O)O)C(=O)O [Compound 9] | 7 ± 0.3 nM |  |
| CC(C)C[C@H](N)[C@@H](O)CC(=O)NCCC(=O)NCCCCCC(=O)NCCCC[C@H](NC(=O)N[C@@H](CCC(=O)O)C(=O)O)C(=O)O [Compound 5] | 10.1 ± 3.2 nM |  |
| CC(C)C[C@H](NC(=O)[C@H](Cc1ccccc1)NC(=O)[C@H](CC(=O)O)NC(=O)CCC(C(=O)O)N1CCN(CC(=O)O)CCN(CC(=O)O)CCN(CC(=O)O)CC1)[C@@H](O)CC(=O)NCCCCCC(=O)NCCCC[C@H](NC(=O)N[C@@H](CCC(=O)O)C(=O)O)C(=O)O (stereo partly drawn) [Compound 22, EuK(Ahx-Sta-L-Phe-Asp-DOTA-GA)] | 1.66 nM and 1 to 1.6 nM | IC50 of 22 (L-Phe) relative to 23 (D-Phe) ([1]; comparison in words): two-fold better; Stability in PBS (%) [5]: > 90%; logD [4]: -3.26 ± 0.05; Stability in Mouse Serum (%) [6]: > 90% |
| CC(C)C[C@H](N)[C@@H](O)CC(=O)NCCCCCC(=O)NCCCC[C@H](NC(=O)N[C@@H](CCC(=O)O)C(=O)O)C(=O)O [Compound 10] | 6.83 ± 0.5 nM |  |
| CC(C)C[C@H](NC(=O)[C@@H](Cc1ccccc1)NC(=O)[C@H](CC(=O)O)NC(=O)CCC(C(=O)O)N1CCN(CC(=O)[O-])CCN(CC(=O)[O-])CCN(CC(=O)[O-])CC1)[C@@H](O)CC(=O)NCCCCCC(=O)NCCCC[C@H](NC(=O)N[C@@H](CCC(=O)O)C(=O)O)C(=O)O.[111In+3] (some centres unmarked) [[^111In]In-23] |  | Stability in PBS (%) [5]: > 90%; Stability in Mouse Serum (%) [6]: > 90% |
| NCCC(=O)NCCC(=O)NCCCCCC(=O)NCCCC[C@H](NC(=O)N[C@@H](CCC(=O)O)C(=O)O)C(=O)O [Compound 3] | 20.1 ± 2.7 nM |  |
| NCCCCCC(=O)NCCCCC(NC(=O)NC(CCC(=O)O)C(=O)O)C(=O)O (centres unmarked) [Compound 1] | 9.86 ± 1.7 nM |  |
| CC(C)C[C@H](NC(=O)[C@H](Cc1ccccc1)NC(=O)[C@@H](N)Cc1ccc(O)cc1)[C@@H](O)CC(=O)NCCCCCC(=O)NCCCC[C@H](NC(=O)N[C@@H](CCC(=O)O)C(=O)O)C(=O)O [Compound 17] | 2.62 ± 0.4 nM |  |

More lines, in order of falling IC50 [1], values ahead:

| IC50 [1] | SMILES | other results |
| --- | --- | --- |
| 6.15 ± 0.6 nM | CC(C)C[C@H](NC(=O)CCN)[C@@H](O)CC(=O)NCCCCCC(=O)NCCCC[C@H](NC(=O)N[C@@H](CCC(=O)O)C(=O)O)C(=O)O [Compound 13] |  |
| 4.53 ± 0.4 nM | NCCC(=O)N[C@@H](Cc1ccccc1)C(=O)NCCCCCC(=O)NCCCC[C@H](NC(=O)N[C@@H](CCC(=O)O)C(=O)O)C(=O)O [Compound 8] |  |
| 3.33 ± 0.4 nM | CC(C)C[C@H](NC(=O)[C@H](Cc1ccccc1)NC(=O)[C@@H](N)Cc1ccccc1)[C@@H](O)CC(=O)NCCCCCC(=O)NCCCC[C@H](NC(=O)N[C@@H](CCC(=O)O)C(=O)O)C(=O)O [Compound 18] |  |
| 3.17 ± 0.5 nM | N[C@@H](Cc1ccccc1)C(=O)NCCCCCC(=O)NCCCC[C@H](NC(=O)N[C@@H](CCC(=O)O)C(=O)O)C(=O)O [Compound 6] |  |
| 2.86 ± 0.3 nM | N[C@@H](Cc1ccccc1)C(=O)NCCC(=O)NCCCCCC(=O)NCCCC[C@H](NC(=O)N[C@@H](CCC(=O)O)C(=O)O)C(=O)O [Compound 4] |  |
| 2.1 ± 0.4 nM | CC(C)C[C@H](NC(=O)[C@H](Cc1ccccc1)NC(=O)[C@@H](N)CN)[C@@H](O)CC(=O)NCCCCCC(=O)NCCCC[C@H](NC(=O)N[C@@H](CCC(=O)O)C(=O)O)C(=O)O [Compound 15] |  |
| 1.73 ± 0.7 nM | CC(C)C[C@H](NC(=O)[C@H](Cc1ccccc1)NC(=O)CN1CCN(CC(=O)O)CCN(CC(=O)O)CCN(CC(=O)O)CC1)[C@@H](O)CC(=O)NCCCCCC(=O)NCCCC[C@H](NC(=O)N[C@@H](CCC(=O)O)C(=O)O)C(=O)O [Compound 14] |  |
| 1.72 ± 0.4 nM | N[C@@H](Cc1ccccc1)C(=O)N[C@@H](Cc1ccccc1)C(=O)NCCCCCC(=O)NCCCC[C@H](NC(=O)N[C@@H](CCC(=O)O)C(=O)O)C(=O)O [Compound 7] |  |
| 1.22 ± 0.3 nM | CC(C)C[C@H](NC(=O)[C@H](Cc1ccccc1)NC(=O)C[C@H](O)[C@@H](N)CC(C)C)[C@@H](O)CC(=O)NCCCCCC(=O)NCCCC[C@H](NC(=O)N[C@@H](CCC(=O)O)C(=O)O)C(=O)O [Compound 19] |  |
| 1.03 ± 0.5 nM | CC(C)C[C@H](NC(=O)[C@H](Cc1ccccc1)NC(=O)[C@@H](N)CC(=O)O)[C@@H](O)CC(=O)NCCCCCC(=O)NCCCC[C@H](NC(=O)N[C@@H](CCC(=O)O)C(=O)O)C(=O)O [Compound 16, EuK(Ahx-Sta-Phe-Asp)] |  |
| 0.9 ± 0.3 nM | O=C(O)CC[C@H](NC(=O)N[C@@H](CCCCNC(=O)[C@H](Cc1ccc2ccccc2c1)NC(=O)[C@H]1CC[C@H](CNC(=O)CN2CCN(CC(=O)O)CCN(CC(=O)O)CCN(CC(=O)O)CC2)CC1)C(=O)O)C(=O)O [PSMA-617, reference compound] | Tumor-to-muscle (T/M) ratio [2]: 26; Internalized fraction as share of total uptake (internalization) [3]: 34.1% |
